Results on two molecules are retold here after US20220071932A1, “Compositions and Methods Against Stress-Induced Affective Disorders and Their Associated Symptoms” (The Trustees of Columbia University in the City of New York, priority 2019, published 2022).

For one experiment, the system named is NMDARs. To be noted: ex vivo autoradiography and immunohistochemical staining; cited from earlier work.
The subject of experiment [1] is depressive symptoms in patients. Conditions: subanesthetic dose; patients; cited from earlier work.
Experiment [2] concerns 129S6/SvEv mice. Briefly: Novelty suppressed feeding (NSF). Conditions: for Novelty Suppressed Feeding, Latency to feed in OF (sec), p (Fisher's LSD): FIG. 8P. In kind it is in vivo. The protocol: Testing was performed as previously described (47). Briefly, the NSF testing apparatus consisted of a plastic box (50×50×20 cm). The floor of which was covered with approximately 2 cm of wooden bedding and the arena was brightly lit (approximately 1000 lux). Mice were food restricted for 24 h prior to testing. At the time of testing, a single pellet of food (regular chow) was placed on a white paper platform positioned in the center of the box. Each animal was placed in a corner of the box, and a stopwatch was immediately started. The latency of the mice to begin eating in the arena was recorded Immediately after the latency was recorded, the food pellet was removed from the arena. The mice were then placed back into their home cage. The latency to eat and the amount of food consumed in 5 min were measured (home cage consumption), followed by an assessment of post-restriction weight. A Kaplan-Meier survival analysis was used due to the lack of normal distribution of data. The Mantel-Cox log-rank test was used to evaluate differences between the experimental groups.

The next experiment deals with c-fos. Briefly: c-fos immunohistochemistry in hippocampus after CFC re-exposure. It is filed as in vivo, mice. Conditions: one week prior to CFC, sacrificed one hour after re-exposure; (R,S)-ketamine 30 mg/kg, FENM 20 mg/kg; vs saline. The protocol: Immunohistochemistry was performed as previously described (46). Mice were deeply anesthetized, and brains were fixed and extracted using transcardial perfusion. For c-fos immunohistochemistry, floating sections were used. Sections were first rinsed three times in 1×PBS and then blocked in 1×PBS with 0.5% Triton X-100 and 10% NDS for 2 hours at room temperature (RT). Incubation with primary antibodies was performed at 4° C. overnight (rabbit anti-c-fos, 1:5000, SySy, Göettingen, Germany, 226 003) in 1×PBS with 0.5% Triton X-100. Sections were then washed three times in 1×PBS and incubated with secondary antibody (Alexa 647 anti-rabbit, 1:500, Thermo Fisher Scientific, Waltham, Mass. A32733) for 2 hours at RT. Sections were then washed three times in 1×PBS, mounted on slides, and coverslipped with ProLong Gold (Invitrogen, Carlsbad, Calif.).
Fluorescent confocal micrographs were captured with a Leica TCS SPE-II confocal microscope with LAS X software. Bilateral hippocampal sections were imaged throughout the rostro-caudal axis of the HPC using a 20× objective. Identification of hippocampal regions involved acquiring 6 dorsal and ventral sections per mouse brain slice at 20×. […]
An investigator blind to treatment groups used FIJI software to count c-fos^+ immunoreactive cells in the DG, CA3, and CA1 throughout the entire rostrocaudal axis of the HPC. Cells were counted bilaterally. […]

The test system of experiment [3] is 129S6/SvEv mice. Briefly: Elevated plus maze (EPM). In kind it is in vivo. To be noted: for distance travelled in the EPM / time spent in the open arms and center of the EPM: (R,S)-ketamine 30 mg/kg, FENM 10, 20 or 30 mg/kg. The protocol:
Testing was performed as previously described (47). Briefly, the maze is a plus-cross-shaped apparatus consisting of four arms, two open and two enclosed by walls, linked by a central platform at a height of 50 cm from the floor. Mice were individually placed in the center of the maze facing an open arm and were allowed to explore the maze for 5 min. The time spent in and the number of entries into the open arms was used as an anxiety index. Videos were scored using ANY-maze behavior tracking software (Stoelting, Wood Dale, Ill.).

The test system of another experiment is NMDAR. To be noted: relative to (R,S)-ketamine; cited from earlier work.
The mark [4] stands for this setting: 1 week prior to CFC, (R,S)-ketamine 30 mg/kg, FENM 10, 20 or 30 mg/kg, vs saline.
The mark [5] stands for this setting: 5 min after context re-exposure 1, (R,S)-ketamine 30 mg/kg, FENM 20 mg/kg, vs saline.
Where [6] appears, read: 5 min prior to CFC, (R,S)-ketamine 30 mg/kg, FENM 20 mg/kg, vs saline.
Setting [7] is: 5 minutes after CFC, re-exposure 1 day after training, (R,S)-ketamine 30 mg/kg, FENM 20 mg/kg, vs saline.
Setting [8] is: 5 minutes after CFC, re-exposure 5 days after training, (R,S)-ketamine 30 mg/kg, FENM 10, 20 or 30 mg/kg, vs saline.
[9] abbreviates: 5 minutes prior to re-exposure 1, (R,S)-ketamine 30 mg/kg, FENM 20 mg/kg, vs saline.
Setting [10] is: 5 minutes after CFC, re-exposure 5 days after training, vs saline.
[11] abbreviates: non-stressed mice, FENM 20 mg/kg 1 hour before the start of the OF, vs saline.

Consider `CNC1(c2ccccc2Cl)CCCCC1=O` (racemic) [(R,S)-ketamine, reference compound], for which the “[18F]-FENM colocalization with NMDARs when (R,S)-ketamine was administered” value in the experiment on NMDARs is “colocalization with NMDARs was lost”. In addition, in experiment [1], the “duration of relief of depressive symptoms” value is reported as “up to 3 weeks”. In experiment [1], the “time to relief of depressive symptoms after administration” value is 2 h. The “latency to feed in the open arena (NSF)” value in the experiment with 129S6/SvEv mice [2] (setting [4]) is “did not alter”; in the experiment with 129S6/SvEv mice [2] (setting [6]), “increased the latency to feed”; in the experiment on 129S6/SvEv mice [2] (setting [7]), “did not alter”; in the experiment on 129S6/SvEv mice [2] (setting [8]) it was “did not alter”. The “latency to eat in the NSF arena” value in the experiment with 129S6/SvEv mice [2] (setting [5]) and in the experiment on 129S6/SvEv mice [2] (setting [9]) was “did not alter” throughout. In addition, the “latency to eat in the homecage (NSF)” value in the experiment with 129S6/SvEv mice [2] (setting [5]) and with 129S6/SvEv mice [2] (setting [9]) was “did not alter” in each case. Moreover, the “latency to feed in the home cage (NSF)” value with 129S6/SvEv mice [2] (setting [7]) is “did not alter”. For the same molecule, the “Novelty Suppressed Feeding, Latency to feed in OF (sec), p (Fisher's LSD)” value with 129S6/SvEv mice [2] (Saline vs. (R,S)-ketamine (30 mg/kg)) worked out at 0.0575. The “c-fos expression in the ventral CA3 of the hippocampus” value in the experiment on c-fos is “significantly increased c-fos expression”. The “distance travelled in the EPM” value in the experiment on 129S6/SvEv mice [3] (1 week prior to CFC, vs saline) is given as “did not alter”; in the experiment on 129S6/SvEv mice [3] (setting [10]) it was “did not alter”. Moreover, the “time spent in the open arms and center of the EPM” value is “did not alter” in the experiment with 129S6/SvEv mice [3] (1 week prior to CFC, vs saline) and “did not alter” in the experiment on 129S6/SvEv mice [3] (setting [10]).
Take `NC12CC3CC(C1)CC(CCF)(C3)C2` [FENM, 1-amino-3-fluoroethyl-adamantane]: the “latency to feed in the open arena (NSF)” value in the experiment with 129S6/SvEv mice [2] (setting [4]) is “did not alter”; in the experiment with 129S6/SvEv mice [2] (setting [6]), “but not FENM, increased”; in the experiment on 129S6/SvEv mice [2] (setting [7]), “did not alter”; in the experiment on 129S6/SvEv mice [2] (setting [8]), “did not alter”. The “latency to eat in the NSF arena” value in the experiment on 129S6/SvEv mice [2] (setting [5]) and in the experiment on 129S6/SvEv mice [2] (setting [9]) was “did not alter” each time. In addition, the “latency to eat in the homecage (NSF)” value in the experiment with 129S6/SvEv mice [2] (setting [5]), with 129S6/SvEv mice [2] (setting [9]) and in the experiment on 129S6/SvEv mice [2] (setting [11]) was “did not alter” in each case. Further, the “latency to feed in the home cage (NSF)” value in the experiment on 129S6/SvEv mice [2] (setting [7]) is “did not alter”. The entries for the “Novelty Suppressed Feeding, Latency to feed in OF (sec), p (Fisher's LSD)” value in the experiment on 129S6/SvEv mice [2] ((R,S)-ketamine (30 mg/kg) vs. FENM (20 mg/kg)) and in the experiment with 129S6/SvEv mice [2] (Saline vs. FENM (20 mg/kg)) were 0.0130 and 0.4585, respectively. Moreover, the “Behavior: Hypophagia” value with 129S6/SvEv mice [2] (Baseline Anxiolytic, dose 20 mg/kg) is “↓”. Also, in the experiment on 129S6/SvEv mice [2] (Log-rank (Mantel-Cox) test, Baseline, anxiety cohort, FENM 20 mg/kg, FIG. 7J), the “p, Fraction of mice not eating in OF, NSF, Saline vs. FENM” value was found to be 0.0210. Also, in the experiment with 129S6/SvEv mice [2] (Log-rank (Mantel-Cox) test, Baseline, anxiety cohort, FENM 20 mg/kg, FIG. 7K), the “p, Fraction of mice not eating in HC, NSF, Saline vs. FENM” value is given as 0.7953. For the same molecule, the “latency to approach the pellet in the NSF arena” value in the experiment with 129S6/SvEv mice [2] (setting [11]) is recorded as “significantly decreased”. In the experiment with 129S6/SvEv mice [2] (t-test, Baseline, anxiety cohort, FENM 20 mg/kg, FIG. 7L), the “p, Change in Weight (g), NSF, Saline vs. FENM” value is given as 0.1661. Moreover, the “p, Food Eaten (g), NSF, Saline vs. FENM” value in the experiment on 129S6/SvEv mice [2] (t-test, Baseline, anxiety cohort, FENM 20 mg/kg, FIG. 7M) was determined as 0.0801. Besides, the “affinity as NMDAR antagonist” value in the experiment with NMDAR was “lower affinity than (R,S)-ketamine”. Also, the “distance travelled in the EPM” value in the experiment on 129S6/SvEv mice [3] (1 week prior to CFC, vs saline) is on record as “did not alter”; in the experiment on 129S6/SvEv mice [3] (setting [10]), “did not alter”. In addition, the “time spent in the open arms and center of the EPM” value with 129S6/SvEv mice [3] (1 week prior to CFC, vs saline) is “did not alter”; with 129S6/SvEv mice [3] (setting [10]) it was “did not alter”. The “time in the open arms, closed arms, and center of the EPM” value in the experiment on 129S6/SvEv mice [3] (setting [11]) is “comparable”. Moreover, the “p, Time in Open Arms (sec), EPM, Saline vs. FENM” value in the experiment on 129S6/SvEv mice [3] (t-test, Baseline, anxiety cohort, FENM 20 mg/kg, FIG. 7G) came out at 0.5729. Also, in the experiment on 129S6/SvEv mice [3] (t-test, Baseline, anxiety cohort, FENM 20 mg/kg, FIG. 7H), the “p, Time in Closed Arms (sec), EPM, Saline vs. FENM” value is on record as 0.5729. Also, the “p, Time in Center (sec), EPM, Saline vs. FENM” value in the experiment on 129S6/SvEv mice [3] (t-test, Baseline, anxiety cohort, FENM 20 mg/kg, FIG. 7I) was found to be 0.3211.
